Source: PubChem BioAssay AID1259407 (Chemical Carcinogenesis Research Information System (CCRIS), 2018)
Activity calls are given as the source filed them. No rule for the calls is given here.

System: CCRIS mutagenicity, Ames/micronucleus/aberration tests
Assay: CCRIS mutagenicity studies
[1] = Test System: AMES SALMONELLA TYPHIMURIUM, Strain/Indicator: TA98, Metabolic Activation: NONE, Method: PREINCUBATION
[2] = Test System: AMES SALMONELLA TYPHIMURIUM, Strain/Indicator: TA98, Metabolic Activation: NONE, Method: STANDARD PLATE
[3] = Test System: AMES SALMONELLA TYPHIMURIUM, Strain/Indicator: TA100, Metabolic Activation: NONE, Method: STANDARD PLATE
[4] = Test System: AMES SALMONELLA TYPHIMURIUM, Strain/Indicator: TA100, Metabolic Activation: NONE, Method: PREINCUBATION
[5] = Test System: AMES SALMONELLA TYPHIMURIUM, Strain/Indicator: TA97A, Metabolic Activation: NONE, Method: STANDARD PLATE
[6] = Test System: AMES SALMONELLA TYPHIMURIUM, Strain/Indicator: TA98, Metabolic Activation: RAT, LIVER, S-9, AROCLOR 1254, Method: STANDARD PLATE

Nc1ccc(-c2ccc(N)c(Br)c2)cc1Br
mutagenic call (Test System: AMES SALMONELLA TYPHIMURIUM, Strain/Indicator: TA98(1,8-DNP6), Metabolic Activation: NONE, Method: STANDARD PLATE): active; positive
mutagenic call (Test System: AMES SALMONELLA TYPHIMURIUM, Strain/Indicator: TA98(1,8-DNP6), Metabolic Activation: S-9, Method: STANDARD PLATE): active; positive
mutagenic call (Test System: AMES SALMONELLA TYPHIMURIUM, Strain/Indicator: TA98/1,8-DNP6, Metabolic Activation: HAMSTER, LIVER, S-9, Method: PREINCUBATION): active; positive
mutagenic call (Test System: AMES SALMONELLA TYPHIMURIUM, Strain/Indicator: TA98/1,8-DNP6, Metabolic Activation: NONE, Method: PREINCUBATION): active; positive
mutagenic call (Test System: AMES SALMONELLA TYPHIMURIUM, Strain/Indicator: TA98, Metabolic Activation: HAMSTER, LIVER, S-9, Method: PREINCUBATION): active; positive
mutagenic call [1]: active; positive
mutagenic call [2]: active; positive
mutagenic call (Test System: AMES SALMONELLA TYPHIMURIUM, Strain/Indicator: TA98, Metabolic Activation: S-9, Method: STANDARD PLATE): active; positive
mutagenic call [3]: inactive; negative
mutagenic call (Test System: AMES SALMONELLA TYPHIMURIUM, Strain/Indicator: TA100, Metabolic Activation: S-9, Method: STANDARD PLATE): active; positive

CCCCCCCC(=O)Cl
mutagenic call (Test System: AMES SALMONELLA TYPHIMURIUM, Strain/Indicator: TA98, Metabolic Activation: HAMSTER, LIVER, S-9, AROCLOR 1254 (30%), Method: PREINCUBATION): inactive; negative
mutagenic call [1]: inactive; negative
mutagenic call (Test System: AMES SALMONELLA TYPHIMURIUM, Strain/Indicator: TA98, Metabolic Activation: RAT, LIVER, S-9, AROCLOR 1254 (30%), Method: PREINCUBATION): inactive; negative
mutagenic call (Test System: AMES SALMONELLA TYPHIMURIUM, Strain/Indicator: TA100, Metabolic Activation: HAMSTER, LIVER, S-9, AROCLOR 1254 (5%), Method: PREINCUBATION): active; positive
mutagenic call (Test System: AMES SALMONELLA TYPHIMURIUM, Strain/Indicator: TA100, Metabolic Activation: HAMSTER, LIVER, S-9, AROCLOR 1254 (10 OR 30%), Method: PREINCUBATION): inactive; negative
mutagenic call (Test System: AMES SALMONELLA TYPHIMURIUM, Strain/Indicator: TA100, Metabolic Activation: HAMSTER, LIVER, S-9, AROCLOR 1254 (30%), Method: PREINCUBATION): active; positive
mutagenic call [4]: inactive; negative
mutagenic call (Test System: AMES SALMONELLA TYPHIMURIUM, Strain/Indicator: TA100, Metabolic Activation: RAT, LIVER, S-9, AROCLOR 1254 (5 OR 10%), Method: PREINCUBATION): inactive; negative
mutagenic call (Test System: AMES SALMONELLA TYPHIMURIUM, Strain/Indicator: TA100, Metabolic Activation: RAT, LIVER, S-9, AROCLOR 1254 (30%), Method: PREINCUBATION): inactive; negative
mutagenic call (Test System: AMES SALMONELLA TYPHIMURIUM, Strain/Indicator: TA1535, Metabolic Activation: HAMSTER, LIVER, S-9, AROCLOR 1254 (5, 10 OR 30%), Method: PREINCUBATION): inactive; negative
mutagenic call (Test System: AMES SALMONELLA TYPHIMURIUM, Strain/Indicator: TA1535, Metabolic Activation: RAT, LIVER, S-9, AROCLOR 1254 (5, 10 OR 30%), Method: PREINCUBATION): inactive; negative

Oc1c(Cl)c(Cl)c(Cl)c(Cl)c1Cl
mutagenic call (End Point: IN VITRO CHROMOSOMAL ABERRATIONS, Test System: CHINESE HAMSTER OVARY CELLS, Metabolic Activation: NONE): inactive; negative
mutagenic call [5]: inactive; negative
mutagenic call (Test System: AMES SALMONELLA TYPHIMURIUM, Strain/Indicator: TA97A, Metabolic Activation: RAT LIVER S-9, AROCLOR 1254, Method: STANDARD PLATE): inactive; negative
mutagenic call (Test System: AMES SALMONELLA TYPHIMURIUM, Strain/Indicator: TA98, Metabolic Activation: HAMSTER, LIVER, S-9, AROCLOR 1254, Method: PREINCUBATION): inactive; negative
mutagenic call [1]: inactive; negative
mutagenic call [2]: inactive; negative
mutagenic call (Test System: AMES SALMONELLA TYPHIMURIUM, Strain/Indicator: TA98, Metabolic Activation: RAT LIVER S-9, AROCLOR 1254, Method: STANDARD PLATE): inactive; negative
mutagenic call (Test System: AMES SALMONELLA TYPHIMURIUM, Strain/Indicator: TA98, Metabolic Activation: RAT, LIVER, S-9, AROCLOR 1254, Method: PREINCUBATION): inactive; negative
mutagenic call [6]: active; positive
mutagenic call (Test System: AMES SALMONELLA TYPHIMURIUM, Strain/Indicator: TA100, Metabolic Activation: HAMSTER, LIVER, S-9, AROCLOR 1254, Method: PREINCUBATION): inactive; negative
mutagenic call [4]: inactive; negative
mutagenic call [3]: inactive; negative
mutagenic call (Test System: AMES SALMONELLA TYPHIMURIUM, Strain/Indicator: TA100, Metabolic Activation: RAT LIVER S-9, AROCLOR 1254, Method: STANDARD PLATE): inactive; negative
mutagenic call (Test System: AMES SALMONELLA TYPHIMURIUM, Strain/Indicator: TA100, Metabolic Activation: RAT, LIVER, S-9, AROCLOR 1254, Method: PREINCUBATION): inactive; negative
mutagenic call (Test System: AMES SALMONELLA TYPHIMURIUM, Strain/Indicator: TA1535, Metabolic Activation: HAMSTER, LIVER, S-9, AROCLOR 1254, Method: PREINCUBATION): inactive; negative
mutagenic call (Test System: AMES SALMONELLA TYPHIMURIUM, Strain/Indicator: TA1535, Metabolic Activation: NONE, Method: PREINCUBATION): inactive; negative
mutagenic call (Test System: AMES SALMONELLA TYPHIMURIUM, Strain/Indicator: TA1535, Metabolic Activation: RAT, LIVER, S-9, AROCLOR 1254, Method: PREINCUBATION): inactive; negative
mutagenic call (Test System: AMES SALMONELLA TYPHIMURIUM, Strain/Indicator: TA1537, Metabolic Activation: HAMSTER, LIVER, S-9, AROCLOR 1254, Method: PREINCUBATION): inactive; negative
mutagenic call (Test System: AMES SALMONELLA TYPHIMURIUM, Strain/Indicator: TA1537, Metabolic Activation: NONE, Method: PREINCUBATION): inactive; negative
mutagenic call (Test System: AMES SALMONELLA TYPHIMURIUM, Strain/Indicator: TA1537, Metabolic Activation: RAT, LIVER, S-9, AROCLOR 1254, Method: PREINCUBATION): inactive; negative
mutagenic call (Test System: CHINESE HAMSTER V-79, Strain/Indicator: V-79/6-THIOGUANINE, Metabolic Activation: NONE, Method: STANDARD PLATE): inactive; negative
mutagenic call (Test System: CHINESE HAMSTER V-79, Strain/Indicator: V-79/6-THIOGUANINE, Metabolic Activation: PRIMARY RAT HEPATOCYTES, Method: STANDARD PLATE): inactive; negative

COCC=O
mutagenic call [5]: active; positive
mutagenic call (Test System: AMES SALMONELLA TYPHIMURIUM, Strain/Indicator: TA97A, Metabolic Activation: RAT, LIVER, S-9, AROCLOR 1254, Method: STANDARD PLATE): active; positive
mutagenic call [2]: inactive; negative
mutagenic call [6]: inactive; negative
mutagenic call [3]: inactive; negative
mutagenic call (Test System: AMES SALMONELLA TYPHIMURIUM, Strain/Indicator: TA100, Metabolic Activation: RAT, LIVER, S-9, AROCLOR 1254, Method: STANDARD PLATE): inactive; negative
mutagenic call (Test System: AMES SALMONELLA TYPHIMURIUM, Strain/Indicator: TA102, Metabolic Activation: NONE, Method: STANDARD PLATE): inactive; negative
mutagenic call (Test System: AMES SALMONELLA TYPHIMURIUM, Strain/Indicator: TA102, Metabolic Activation: RAT, LIVER, S-9, AROCLOR 1254, Method: STANDARD PLATE): inactive; negative
mutagenic call (Test System: CHINESE HAMSTER OVARY, Strain/Indicator: CHO AS52 (GPT)/6-THIOGUANINE, Metabolic Activation: NONE): active; positive
mutagenic call (Test System: CHINESE HAMSTER OVARY, Strain/Indicator: CHO-AS52/6-THIOGUANINE, Metabolic Activation: NONE): active; positive
mutagenic call (Test System: CHINESE HAMSTER OVARY, Strain/Indicator: CHO-K1-BH4 (HGPRT)/6-THIOGUANINE, Metabolic Activation: NONE): inactive; negative
mutagenic call (Test System: CHINESE HAMSTER OVARY, Strain/Indicator: CHO-K1-BH4 (HGPRT)/6-THIOGUANINE, Metabolic Activation: RAT, LIVER, S-9, AROCLOR 1254): inactive; negative
mutagenic call (Test System: CHINESE HAMSTER V-79, Strain/Indicator: V-79 (HPRT)/6-THIOGUANINE, Metabolic Activation: NONE): active; positive

Nc1ncnc2c1ncn2[C@H]1C[C@H](O)[C@@H](CO)O1
mutagenic call [2]: inactive; negative
mutagenic call (Test System: AMES SALMONELLA TYPHIMURIUM, Strain/Indicator: TA98, Metabolic Activation: RAT, LIVER, S-9, POLYCHLORINATED BIPHENYLS, Method: STANDARD PLATE): inactive; negative
mutagenic call [3]: inactive; negative
mutagenic call (Test System: AMES SALMONELLA TYPHIMURIUM, Strain/Indicator: TA100, Metabolic Activation: RAT, LIVER, S-9, POLYCHLORINATED BIPHENYLS, Method: STANDARD PLATE): inactive; negative
mutagenic call (Test System: MOUSE LYMPHOMA, Strain/Indicator: L5178Y (TK+/TK-), Metabolic Activation: NONE, Method: SUSPENSION/PLATE): active; positive
